The record followed here is ChEMBL document CHEMBL1201862, “PubChem BioAssay data set” (2004).

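Dose response: 5 concentrations. Exposure: 48 h. Format: 96-well plates. Endpoint: linear interpolation; highest concentration if not reached. Abbreviation: GI50, concentration required for 50% inhibition of growth.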 The source made the active and inactive calls. Rule as the data show it: active = GI50 up to about 1.1 µM and inactive = higher.

Test systems include KM-20L2; 786-0; SK-MEL-28; LXFL 529; HT-29; ACHN; HOP-62; HCT-15; UO-31; M14; K562; Malme-3M; MOLT-4; SF-268; LOX IMVI; HOP-92; PC-3; MDA-MB-231; T47D; MDA-MB-435.
What all share (assay): growth of human tumour cells (NCI), 48 h

As to `CCCC(S(=O)(=O)c1ccccc1)S(=O)(=O)c1ccccc1`, the GI50 with KM-20L2, in the experiment with 786-0, with SK-MEL-28, in the experiment with LXFL 529, with HT-29 and in the experiment on ACHN was > 100 µM (inactive) throughout. The GI50 is > 100 µM (inactive) in the experiment with HOP-62; greater than 100 µM in the experiment on HCT-15; > 100 µM (inactive) in the experiment with UO-31; > 100 µM (inactive) with M14; > 100 µM (inactive) with K562; > 100 µM (inactive) with Malme-3M. Also, in the experiment on MOLT-4, the GI50 is > 100 µM (inactive).

In the case of `N#CC1=C(c2ccccc2)OC2(N)OC(c3ccccc3)=C(C#N)C12C#N` (stereo unspecified), the GI50 in the experiment with KM-20L2 was > 100 µM (inactive); in the experiment with 786-0, > 100 µM (inactive); in the experiment on SK-MEL-28 it was > 100 µM (inactive); in the experiment with LXFL 529, 74 µM (inactive); with SF-268 it was > 100 µM (inactive); in the experiment on HT-29 it was > 100 µM (inactive). For the same molecule, the GI50 is > 100 µM (inactive) in the experiment on ACHN; > 100 µM (inactive) in the experiment on HOP-62; greater than 100 µM with HCT-15; > 100 µM (inactive) in the experiment on LOX IMVI; 31.5 µM (inactive) in the experiment with UO-31; > 100 µM (inactive) in the experiment with M14. The GI50 in the experiment with K562, in the experiment on Malme-3M and in the experiment with MOLT-4 was > 100 µM (inactive) throughout.

With `Cc1cc2c(C(C)C)c(O)c(O)c(/C=N\CCO)c2c(O)c1-c1c(C)cc2c(C(C)C)c(O)c(O)c(/C=N/CCO)c2c1O`, the GI50 in the experiment with 786-0 is 2.1 µM (inactive); in the experiment with SK-MEL-28, 1.67 µM (inactive); in the experiment on LXFL 529, 1.64 µM (inactive); in the experiment on SF-268, 1.39 µM (inactive); with HT-29, 2.28 µM (inactive); with ACHN, 3.37 µM (inactive). For the same molecule, the GI50 was 2.6 µM (inactive) in the experiment on HOP-62; 1.51 µM in the experiment on HCT-15; 1.64 µM (inactive) with LOX IMVI; 3.44 µM (inactive) in the experiment with UO-31; 1.83 µM (inactive) with M14; 1.02 µM (active) in the experiment on K562. The values for the GI50 in the experiment with HOP-92, in the experiment on Malme-3M and in the experiment with MOLT-4 were 1.75 µM (inactive), 2.47 µM (inactive) and 0.527 µM (active), respectively.

As for `CN(C)Cc1c(O)ccc2c1c1c(n2C)C(=O)c2ccccc2C1=O`, the GI50 in the experiment with PC-3 was 3.9 µM (inactive); in the experiment on 786-0 it was 7.21 µM (inactive); with SK-MEL-28 it was 4.69 µM (inactive); in the experiment on MDA-MB-231, 7.8 µM (inactive); in the experiment with T47D it was 11.7 µM (inactive); with SF-268 it was 7.85 µM (inactive). In addition, the GI50 was 1.4 µM (inactive) in the experiment on HT-29; 2.31 µM (inactive) in the experiment on ACHN; 15.1 µM (inactive) with HOP-62; 4.49 µM with HCT-15; 1.79 µM (inactive) with LOX IMVI; 4.01 µM (inactive) with UO-31. Moreover, the GI50 with M14 is 11.2 µM (inactive); with K562 it was 3.12 µM (inactive); with MDA-MB-435 it was 4.35 µM (inactive); in the experiment on HOP-92 it was 12.6 µM (inactive); in the experiment with Malme-3M it was 3.72 µM (inactive); in the experiment on MOLT-4, 0.544 µM (active).

As for `Clc1ncnc(Cl)c1Cl`, the GI50 in the experiment with PC-3, in the experiment with 786-0, in the experiment on SK-MEL-28, in the experiment with MDA-MB-231, in the experiment with T47D and in the experiment on SF-268 was > 100 µM (inactive) each time. Further, the GI50 was > 100 µM (inactive) with HT-29; > 100 µM (inactive) with ACHN; > 100 µM (inactive) in the experiment with HOP-62; greater than 100 µM with HCT-15; > 100 µM (inactive) in the experiment with LOX IMVI; > 100 µM (inactive) with UO-31. For the same molecule, the GI50 with M14, in the experiment on K562, with MDA-MB-435, in the experiment on HOP-92, in the experiment with Malme-3M and with MOLT-4 was > 100 µM (inactive) throughout.

Turning to `COC(=O)[C@]1(c2cc3ccccc3[nH]2)CC2CNC1C1OC(C)(C)OC21` (stereo partly specified), the GI50 with PC-3 is > 100 µM (inactive); in the experiment with 786-0 it was > 100 µM (inactive); with SK-MEL-28, > 100 µM (inactive); in the experiment on MDA-MB-231 it was 64.7 µM (inactive); with T47D it was 52.4 µM (inactive); with SF-268 it was > 100 µM (inactive). In addition, the GI50 is > 100 µM (inactive) with HT-29; > 100 µM (inactive) in the experiment on ACHN; > 100 µM (inactive) with HOP-62; greater than 100 µM in the experiment with HCT-15; > 100 µM (inactive) in the experiment on LOX IMVI; > 100 µM (inactive) with UO-31. Besides, the GI50 in the experiment with M14 was > 100 µM (inactive); with K562, 73.6 µM (inactive); in the experiment with MDA-MB-435 it was 84.5 µM (inactive); in the experiment on HOP-92, > 100 µM (inactive); in the experiment with Malme-3M, > 100 µM (inactive); with MOLT-4, 66.4 µM (inactive).

Turning to `N#CCC1(c2ccc(Cl)cc2)NC(=O)c2ccccc21` (stereo unspecified), the GI50 with PC-3, with 786-0, in the experiment on SK-MEL-28, in the experiment with MDA-MB-231, in the experiment with T47D and with SF-268 was > 100 µM (inactive) each time. The GI50 in the experiment with HT-29 was > 100 µM (inactive); in the experiment with ACHN, > 100 µM (inactive); with HOP-62 it was > 100 µM (inactive); in the experiment with HCT-15, greater than 100 µM; with LOX IMVI it was > 100 µM (inactive); with UO-31, > 100 µM (inactive). The GI50 in the experiment on M14, in the experiment with K562, in the experiment with MDA-MB-435, in the experiment with HOP-92, in the experiment with Malme-3M and in the experiment with MOLT-4 was > 100 µM (inactive) in each case.

With `COc1ccc2c(c1)Cc1cc(/N=[N+](\[O-])c3ccc4c(c3)Cc3cc(OC)ccc3-4)ccc1-2`, the GI50 was 35.9 µM (inactive) in the experiment with PC-3; 33.2 µM (inactive) in the experiment on 786-0; 75.2 µM (inactive) in the experiment with SK-MEL-28; 43 µM (inactive) in the experiment on MDA-MB-231; 38.5 µM (inactive) in the experiment with T47D; 82.8 µM (inactive) with SF-268. Also, the GI50 with HT-29 is 15.6 µM (inactive); in the experiment with ACHN, 37.2 µM (inactive); with HOP-62, 43.9 µM (inactive); in the experiment with HCT-15, 95.7 µM; in the experiment on LOX IMVI it was 33.1 µM (inactive); in the experiment with UO-31, 24.9 µM (inactive). For the same molecule, the GI50 with M14 was 49.4 µM (inactive); with K562, 38.8 µM (inactive); with MDA-MB-435, 27.1 µM (inactive); with HOP-92, 44.1 µM (inactive); in the experiment with Malme-3M it was 38.9 µM (inactive); in the experiment with MOLT-4, 36.6 µM (inactive).

With `COc1cccc(/C=C/c2cnc3ccccc3n2)c1OC`, the GI50 was 25.1 µM (inactive) in the experiment with PC-3; 39.1 µM (inactive) in the experiment with 786-0; 44.2 µM (inactive) in the experiment on SK-MEL-28; 22 µM (inactive) in the experiment on MDA-MB-231; 23.2 µM (inactive) in the experiment with T47D; 31.3 µM (inactive) in the experiment on SF-268. For the same molecule, the GI50 with HT-29 is 26.4 µM (inactive); with ACHN it was 50.1 µM (inactive); with HOP-62, 24.7 µM (inactive); in the experiment on HCT-15 it was 27.5 µM; in the experiment on LOX IMVI it was 36.6 µM (inactive); in the experiment with UO-31, 34.1 µM (inactive). Further, the GI50 is 46.2 µM (inactive) in the experiment with M14; 71 µM (inactive) with K562; 32 µM (inactive) in the experiment with MDA-MB-435; 23.7 µM (inactive) in the experiment with HOP-92; 34.5 µM (inactive) in the experiment with Malme-3M; 12.9 µM (inactive) with MOLT-4.

Turning to `CC(C)/C(Cl)=N/OC(=O)Nc1cccc(C(F)(F)F)c1`, the GI50 in the experiment on PC-3 is 16.2 µM (inactive); in the experiment on 786-0 it was 2.52 µM (inactive); with SK-MEL-28 it was 5.45 µM (inactive); in the experiment on MDA-MB-231 it was 6.68 µM (inactive); with T47D, 4.1 µM (inactive); in the experiment with SF-268 it was 23.1 µM (inactive). Also, the GI50 is 4.98 µM (inactive) with HT-29; 1.69 µM (inactive) in the experiment on ACHN; 18.1 µM (inactive) with HOP-62; 1.82 µM in the experiment on HCT-15; 2.51 µM (inactive) in the experiment on LOX IMVI; 7.96 µM (inactive) with UO-31. In addition, the GI50 is 3.52 µM (inactive) in the experiment on M14; 1.54 µM (inactive) in the experiment on K562; 11.8 µM (inactive) in the experiment with MDA-MB-435; 1.75 µM (inactive) in the experiment on HOP-92; 1.6 µM (inactive) in the experiment with Malme-3M; 1.67 µM (inactive) in the experiment on MOLT-4.

For `COc1nc2c(c(O)c(C)c(=O)n2OC2OCC(OC(C)=O)C(OC(C)=O)C2OC(C)=O)c(=O)n1C` (stereo unspecified), the GI50 in the experiment on KM-20L2, with 786-0, in the experiment on SK-MEL-28, in the experiment with LXFL 529, with SF-268 and with HT-29 was > 100 µM (inactive) throughout. For the same molecule, the GI50 in the experiment with ACHN was > 100 µM (inactive); in the experiment with HOP-62 it was > 100 µM (inactive); in the experiment on HCT-15 it was greater than 100 µM; in the experiment with LOX IMVI, > 100 µM (inactive); in the experiment on UO-31, > 100 µM (inactive); in the experiment on M14, > 100 µM (inactive). For the same molecule, the GI50 with K562 and in the experiment with MOLT-4 was > 100 µM (inactive) throughout.

`O=c1c(Cc2ccc(Cl)cc2)nnc2sc(-c3ccc(-c4ccc(F)c(Cl)c4)o3)nn12`: the GI50 in the experiment with PC-3 was 57.1 µM (inactive); with 786-0, 71 µM (inactive); in the experiment on SK-MEL-28 it was > 100 µM (inactive); with MDA-MB-231 it was > 100 µM (inactive); in the experiment on T47D it was 80.2 µM (inactive); in the experiment on SF-268 it was 76.6 µM (inactive). The GI50 with HT-29 is 50.5 µM (inactive); with ACHN, 35.7 µM (inactive); with HOP-62, > 100 µM (inactive); in the experiment on HCT-15 it was 34.9 µM; with LOX IMVI it was 70.5 µM (inactive); in the experiment with UO-31, 33.6 µM (inactive). In addition, the GI50 with M14 was 64.6 µM (inactive); with K562, 37.6 µM (inactive); in the experiment with MDA-MB-435 it was 82 µM (inactive); in the experiment on HOP-92 it was 58.7 µM (inactive); in the experiment on Malme-3M, > 100 µM (inactive); with MOLT-4 it was 43.7 µM (inactive).
